Among the data in patent US20120270237A9, “METHODS FOR THE IDENTIFICATION OF KINASE INTERACTING MOLECULES AND FOR THE PURIFICATION OF KINASE PROTEINS” (Cellzone AG, priority 2009, published 2012) are inhibition and Competition % values, retold here.

Holding throughout (assay): Kinobeads competition binding, L-363 cell lysate
Holding throughout (details): 10 μM free compound, L-363 lysate

One assay deals with CaMKK2 (Homo sapiens, UniProt Q96RR4). More on the design: capturing and identification of kinases from L-363 cell lysate; endogenous in cells; host or cells: L-363 cells (DSMZ ACC49), pre-treated with MG132. The procedure:
(§1) To one aliquot of cell lysate 10 μM of the free compound (FIG. 3, CZC31326) was added and allowed to bind to proteins in the lysate. Then the affinity matrix with the immobilized compound was added to capture proteins that were not interacting with the previously added free compound. Beads were separated from the lysate and bead bound proteins were eluted in SDS sample buffer and subsequently separated by SDS-Polyacrylamide gel electrophoresis (FIG. 8). Suitable gel bands were cut out and subjected to in-gel proteolytic digestion with trypsin. The second lysate aliquot was processed identically, however no free compound was added (DMSO solvent control). Peptides originating from samples 1 and 2 were labeled with iTRAQ reagents (iTRAQ 114 and iTRAQ 117) and the combined samples were analyzed with a nano-flow liquid chromatography system coupled online to a tandem mass spectrometer (LC-MS/MS) experiment followed by iTRAQ reporter ion quantification in the MS/MS spectra as described in Example 2.
(§2) For this experiment the human plasma cell leukaemia line L-363 was used (German Collection of Microorganisms and Cell Cultures, DSMZ number ACC49, Braunschweig, Germany). Cells were treated for three hours with 20 μM of the proteasome inhibitor MG132 (Z-Leu-Leu-Leu-al, Sigma C2211) prior to cell harvesting.

Another assay has as its target CDC2 (Homo sapiens, UniProt P06493). More on the design: capturing and identification of kinases from L-363 cell lysate; endogenous in cells; host or cells: L-363 cells (DSMZ ACC49), pre-treated with MG132. The method, then:
as §1, §2

A further assay deals with CK2a1 (Homo sapiens, UniProt P68400). More on the design: capturing and identification of kinases from L-363 cell lysate; endogenous in cells; host or cells: L-363 cells (DSMZ ACC49), pre-treated with MG132. The procedure: as §1, §2
The target in another assay is T1, ADCK1 (Homo sapiens, UniProt Q86TW2).
T1 construct: capturing and identification of kinases from L-363 cell lysate; endogenous in cells; host or cells: L-363 (treated with MG132 before harvest)
The procedure:
as §1, §2

For the next assay, the target named is T2, ULK3 (Homo sapiens, UniProt Q6PHR2).
T2 sequence (Q6PHR2 1-472): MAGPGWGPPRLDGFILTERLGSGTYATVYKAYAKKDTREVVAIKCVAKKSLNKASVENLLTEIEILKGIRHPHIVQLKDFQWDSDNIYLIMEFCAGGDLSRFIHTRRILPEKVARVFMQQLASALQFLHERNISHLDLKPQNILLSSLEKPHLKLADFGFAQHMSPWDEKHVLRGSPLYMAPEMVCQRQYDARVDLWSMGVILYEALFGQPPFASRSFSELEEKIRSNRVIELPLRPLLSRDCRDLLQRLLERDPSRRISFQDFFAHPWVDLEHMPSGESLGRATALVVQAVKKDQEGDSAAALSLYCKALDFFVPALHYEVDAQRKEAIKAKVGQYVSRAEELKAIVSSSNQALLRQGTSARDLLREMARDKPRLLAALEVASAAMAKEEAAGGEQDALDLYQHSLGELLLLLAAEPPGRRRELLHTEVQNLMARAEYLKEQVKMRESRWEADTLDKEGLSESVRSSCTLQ
The procedure:
as §1, §2

The next assay concerns the target T3, NEK3 (Homo sapiens, UniProt P51956).
T3 sequence (P51956 1-506): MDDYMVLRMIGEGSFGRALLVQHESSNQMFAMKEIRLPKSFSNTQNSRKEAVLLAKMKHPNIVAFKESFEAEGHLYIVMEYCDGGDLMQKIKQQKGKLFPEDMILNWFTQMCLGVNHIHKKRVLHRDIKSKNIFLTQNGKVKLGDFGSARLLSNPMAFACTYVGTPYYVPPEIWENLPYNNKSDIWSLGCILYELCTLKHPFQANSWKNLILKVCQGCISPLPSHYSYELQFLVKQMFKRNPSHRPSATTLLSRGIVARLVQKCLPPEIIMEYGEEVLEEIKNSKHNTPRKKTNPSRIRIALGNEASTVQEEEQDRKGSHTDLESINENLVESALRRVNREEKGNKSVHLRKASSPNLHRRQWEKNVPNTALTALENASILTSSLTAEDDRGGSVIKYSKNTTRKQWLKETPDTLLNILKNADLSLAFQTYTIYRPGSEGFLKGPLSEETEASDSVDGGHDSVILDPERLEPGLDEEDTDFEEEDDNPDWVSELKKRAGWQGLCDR
More on the design: endogenous in cells; host or cells: L-363 (MG132-treated). The method, then: as §1, §2

The next assay addresses PAK4 (Homo sapiens, UniProt O96013). Set-up: endogenous in cells; host or cells: L-363 (MG132-treated). The procedure: as §1, §2

Sequence of CK2a1 (P68400 whole entry): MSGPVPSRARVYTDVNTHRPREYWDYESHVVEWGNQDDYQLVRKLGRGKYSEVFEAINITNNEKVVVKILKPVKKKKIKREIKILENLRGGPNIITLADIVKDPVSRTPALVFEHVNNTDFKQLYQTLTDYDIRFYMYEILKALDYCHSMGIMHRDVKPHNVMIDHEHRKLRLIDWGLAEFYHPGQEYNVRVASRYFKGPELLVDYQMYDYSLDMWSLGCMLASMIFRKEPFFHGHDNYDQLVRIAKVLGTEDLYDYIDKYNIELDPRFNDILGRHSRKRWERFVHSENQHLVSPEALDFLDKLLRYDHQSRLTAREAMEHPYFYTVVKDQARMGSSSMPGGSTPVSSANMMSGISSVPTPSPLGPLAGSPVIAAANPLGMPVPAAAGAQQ
T1 sequence (Q86TW2 whole entry): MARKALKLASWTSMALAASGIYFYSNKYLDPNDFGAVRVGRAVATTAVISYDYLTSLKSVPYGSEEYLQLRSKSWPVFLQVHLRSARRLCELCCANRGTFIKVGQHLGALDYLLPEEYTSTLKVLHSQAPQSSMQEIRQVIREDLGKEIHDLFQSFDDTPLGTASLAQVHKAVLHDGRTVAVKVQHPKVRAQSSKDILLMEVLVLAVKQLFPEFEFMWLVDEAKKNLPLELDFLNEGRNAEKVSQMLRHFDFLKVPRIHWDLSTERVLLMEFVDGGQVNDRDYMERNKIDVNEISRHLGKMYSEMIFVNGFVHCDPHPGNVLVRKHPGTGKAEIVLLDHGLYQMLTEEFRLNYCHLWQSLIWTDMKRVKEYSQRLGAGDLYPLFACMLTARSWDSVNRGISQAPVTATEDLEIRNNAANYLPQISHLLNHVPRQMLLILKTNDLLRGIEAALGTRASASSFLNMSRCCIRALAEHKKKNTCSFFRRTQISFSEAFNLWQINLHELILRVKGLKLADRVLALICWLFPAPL
Sequence of CaMKK2 (Q96RR4 whole entry): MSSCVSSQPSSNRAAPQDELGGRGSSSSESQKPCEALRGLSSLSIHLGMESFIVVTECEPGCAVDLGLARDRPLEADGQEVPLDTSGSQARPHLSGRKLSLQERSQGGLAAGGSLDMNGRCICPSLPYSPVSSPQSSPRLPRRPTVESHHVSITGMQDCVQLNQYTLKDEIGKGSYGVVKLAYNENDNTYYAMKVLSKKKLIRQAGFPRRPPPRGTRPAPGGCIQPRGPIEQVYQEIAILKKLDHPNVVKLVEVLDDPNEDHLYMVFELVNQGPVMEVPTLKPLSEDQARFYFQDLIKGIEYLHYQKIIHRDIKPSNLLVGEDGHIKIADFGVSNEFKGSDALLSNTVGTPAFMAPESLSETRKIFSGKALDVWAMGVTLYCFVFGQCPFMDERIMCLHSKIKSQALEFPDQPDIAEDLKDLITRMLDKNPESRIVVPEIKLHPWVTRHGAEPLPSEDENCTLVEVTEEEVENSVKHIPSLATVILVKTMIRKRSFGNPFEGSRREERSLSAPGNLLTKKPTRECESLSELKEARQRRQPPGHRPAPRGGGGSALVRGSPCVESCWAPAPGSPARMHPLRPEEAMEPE
Sequence of PAK4 (O96013 whole entry): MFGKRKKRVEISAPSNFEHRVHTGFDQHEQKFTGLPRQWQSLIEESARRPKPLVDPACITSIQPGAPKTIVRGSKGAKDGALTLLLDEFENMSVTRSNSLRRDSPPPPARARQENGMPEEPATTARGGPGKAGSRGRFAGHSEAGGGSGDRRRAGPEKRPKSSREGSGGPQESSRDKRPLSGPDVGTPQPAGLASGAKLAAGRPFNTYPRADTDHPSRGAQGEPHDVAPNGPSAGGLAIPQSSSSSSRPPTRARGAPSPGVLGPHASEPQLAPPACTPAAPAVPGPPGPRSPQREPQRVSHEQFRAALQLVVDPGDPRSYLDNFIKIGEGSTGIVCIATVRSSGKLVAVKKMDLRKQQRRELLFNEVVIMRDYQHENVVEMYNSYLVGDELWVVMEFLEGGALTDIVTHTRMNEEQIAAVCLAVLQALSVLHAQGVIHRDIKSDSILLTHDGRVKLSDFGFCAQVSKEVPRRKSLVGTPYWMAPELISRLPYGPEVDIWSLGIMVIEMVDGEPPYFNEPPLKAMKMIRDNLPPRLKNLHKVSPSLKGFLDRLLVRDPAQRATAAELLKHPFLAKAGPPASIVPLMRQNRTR
Sequence of CDC2 (P06493 whole entry): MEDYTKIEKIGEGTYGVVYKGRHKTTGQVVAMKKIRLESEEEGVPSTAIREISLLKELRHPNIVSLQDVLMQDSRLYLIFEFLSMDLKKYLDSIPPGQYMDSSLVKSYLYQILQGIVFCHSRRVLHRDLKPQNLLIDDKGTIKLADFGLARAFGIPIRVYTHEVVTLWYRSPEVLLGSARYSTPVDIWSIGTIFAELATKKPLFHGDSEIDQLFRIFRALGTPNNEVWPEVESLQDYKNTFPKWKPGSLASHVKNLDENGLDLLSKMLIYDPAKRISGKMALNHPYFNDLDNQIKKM

The term inhibition denotes the change of the read-out against control, counted positive when it falls. For the compound `CS(=O)(=O)Nc1ccccc1Nc1nc(Nc2cccc(OCCN)c2)ncc1Cl` [CZC31326, N-(2-(2-(3-(2-aminoethoxy)phenylamino)-5-chloropyrimidin-4-ylamino)phenyl)methanesulfonamide], the inhibition at 10 µM worked out at 97% at CaMKK2; 95.1% at CDC2; 97.9% at CK2a1; 93.8% on ADCK1; 96.8% on NEK3; 97.3% on PAK4. For the same compound, at ULK3, the Competition % was found to be 98.5%.
